Data set [1] in a line: in vitro model of monosodium urate monohydrate (MSU) crystallization: naked eye observation and uric acid remaining in solution (phosphotungstic acid method). Also noted: C100 (minimum concentration that totally prevented the formation of sodium urate crystals): unit not given here. In kind it is physicochemical. Particulars: for concentration capable of preventing the formation of MSU crystals (increased uric acid in solution) / C100 (minimum concentration that totally prevented the formation of sodium urate crystals): 5 days (120 h); for effect on the crystallization of MSU (formation of MSU crystals) / solubility of sodium urate in the tested fluid: compound 0.3 mM; for effect on the crystallization of MSU (formation of MSU crystals): uric acid 375 mg/L (2.23 mM), 6 days (144 h) plate images, 4 days uric acid in solution; for effect on the crystallization of MSU (formation of MSU crystals) / solubility of sodium urate in the tested fluid / C100 (minimum concentration that totally prevented the formation of sodium urate crystals): phosphate buffer 12 mM.

The conditions of data set [2]: doses of up to 400 mg three times a day; treatment of myopia; cited from earlier work.
The conditions of data set [3]: cited from earlier work.
Where [4] appears, read: uric acid 375 mg/L, [Na+] 400 mM, pH 7.4.

We go through five molecules from EP4497439A1, “COMPOUNDS FOR THE TREATMENT OR PREVENTION OF GOUT” (Universitat de les Illes Balears, priority 2023, dated 2025).

Like-named read-outs stand apart in the source and are kept apart here.

Regarding `Cn1c(=O)[nH]c(=O)c2[nH]cnc21` [3-methylxanthine], in data set [1] (setting [4]), the “concentration capable of preventing the formation of MSU crystals (increased uric acid in solution)” value was no more than 50 µM and the “solubility of sodium urate in the tested fluid” value (shortened to “solubility of sodium urate”) is listed as “significantly increased”. The “effect on the crystallization of MSU (formation of MSU crystals)” value (from here on “effect on the crystallization of MSU”) in data set [1] ([Na+] 400 mM, pH 7.4) is “strong inhibition”. Also, the “effects relative to those of 7-methylxanthine” value in data set [1] (same concentration) is listed as “approximately half”.

In the case of `Cn1c(=O)[nH]c2[nH]c(=O)[nH]c(=O)c21` [7-methyluric acid], the “effect on the crystallization of MSU” value in data set [1] ([Na+] 400 mM, pH 7.4) is “strong inhibition”. In addition, the “solubility of sodium urate” value in data set [1] (setting [4]) was “significantly increased”. In addition, the “effects relative to those of 7-methylxanthine” value in data set [1] (same concentration) is reported as “like those of 7-methylxanthine”.

As for `Cn1cnc2[nH]c(=O)[nH]c(=O)c21` [7-methylxanthine], in data set [1] (50 µM, 100 µM and 150 µM, triplicates, uric acid 375 mg/L, [Na+] 400 mM, pH 7.4, 72 h), the “formation of MSU crystals after 3 days” value is recorded as “completely prevented”. Also, the “concentration capable of preventing the formation of MSU crystals (increased uric acid in solution)” value in data set [1] (setting [4]) is no more than 50 µM. Moreover, the “C100 (minimum concentration that totally prevented the formation of sodium urate crystals)” value in data set [1] ([UA]0 275 mg/L, [Na+] 400 mM, pH 7.4) is reported as 10; in data set [1] ([UA]0 300 mg/L, [Na+] 400 mM, pH 7.4), 20; in data set [1] ([UA]0 340 mg/L, [Na+] 400 mM, pH 7.4) it was 40; in data set [1] ([UA]0 375 mg/L, [Na+] 400 mM, pH 7.4) it was 60; in data set [1] ([UA]0 400 mg/L, [Na+] 400 mM, pH 7.4), 80; in data set [1] ([UA]0 425 mg/L, [Na+] 400 mM, pH 7.4), 100. Moreover, the “C100 (minimum concentration that totally prevented the formation of sodium urate crystals)” value in data set [1] ([UA]0 450 mg/L, [Na+] 400 mM, pH 7.4) came out at 125. Moreover, the “effect on the crystallization of MSU” value in data set [1] ([Na+] 400 mM, pH 7.4) is “strong inhibition”. Besides, the “solubility of sodium urate” value in data set [1] (setting [4]) was “significantly increased”. In data set [1] (same concentration, 5 days, uric acid 375 mg/L), the “crystallization inhibition compared with the other methylxanthine” value is recorded as “significantly higher crystallization inhibition compared to 3-methylxanthine”. The “concentration that prevents the formation of sodium urate crystals for times longer than 48h” value in data set [1] (times longer than 48h) is roughly 6 mg/L. The toxicity result in data set [2] is listed as “do not present any toxicity”.

As for `Cn1c(=O)c2c(ncn2C)n(C)c1=O` [caffeine, 1,3,7-trimethylxanthine, reference compound], the “share metabolized to 7-methylxanthine” value in data set [3] (administered orally) is listed as 8%. Further, the “effect on the crystallization of MSU” value in data set [1] ([Na+] 400 mM, pH 7.4) is recorded as “does not affect”.

Take `Cn1cnc2c1c(=O)[nH]c(=O)n2C` [theobromine, 3,7-dimethylxanthine, reference compound]: the “share metabolized to 7-methylxanthine” value in data set [3] (in vivo, po) is 30%. Further, in data set [1] ([Na+] 400 mM, pH 7.4), the “effect on the crystallization of MSU” value was “did not show any effect”.
